Tested on: rat
Assay: DRL-72 s (Differential Reinforcement of Low-rate-72 seconds) in-vivo rat test
Conditions: for % reinforced presses/total number of presses: n = 8 rats, test duration 1 hour, mean±SEM, solvent control 3.07 ± 0.48%; for minimum active dose in the DRL-72 s test: compound alone, intraperitoneally, rat
Excerpt: The in-vivo rat test DRL-72 s (Differential Reinforcement of Low-rate-72 seconds) is used according to the technique described by C. Louis et al., Neuropsychopharmacology, 2006, 1-8.
Effects compared with regard to the percentage of rewards obtained (reinforced presses) with respect to the total number of presses by the rat after intraperitoneal administration of the compound A alone, of the compound B alone and of the compound A+compound B combination versus the control (solvent alone).
Beforehand, the minimum active doses of the compound A alone and of the compound B alone in the DRL-72 s test were determined, namely: • compound A: 10 mg/kg intraperitoneally; • compound B: 5 mg/kg intraperitoneally.
The compound A alone at the dose of 3 mg/kg and the compound B alone at the dose of 2.5 mg/kg were dissolved in a 0.9% (weight/volume) aqueous sodium chloride solution comprising 0.1% (v/v) Tween 80® and administered intraperitoneally at a final volume of 1 ml/kg.
The combination was administered intraperitoneally by two simultaneous administrations of the compound A (3 mg/kg) and then of the compound B (2.5 mg/kg).
The doses of the compounds are expressed in the free base form.
For the requirements of the test, the effect of the compound A alone, the effect of the compound B alone and the effect of the compound A+compound B combination, compared with the effect of the solvent (control), are measured for each animal.
Each rat (n=8) thus receives four injections spread out over time, namely the solvent (control), the compound A alone, the compound B alone and the compound A+compound B combination.
The results obtained are collated in Table I and are expressed as a percentage of rewards obtained with respect to the total number of presses over the duration of the test (1 hour), in the mean±SEM (standard error of the mean) form.

## CNCCC(Oc1ccc(C(F)(F)F)cc1)c1ccccc1 (racemic) [Compound B, (±)-N-methyl-3-phenyl-3-[4-(trifluoromethyl)phenoxy]propan-1-amine]
Compound B alone 2.5 mg/kg i.p.
  percentage number of rewards obtained with respect to the control (in words): does not modify
Compound B alone 2.5 mg/kg intraperitoneally
  % reinforced presses/total number of presses: 3.82 ± 0.76%
  minimum active dose in the DRL-72 s test: 5 mg/kg

## CC(=O)NC1(c2ccccc2)CCN(CC[C@H](CN(C)C(=O)c2ccccc2)c2ccc(Cl)c(Cl)c2)CC1 [Compound A, (S)-(−)-N-[4-(4-Acetamido-4-phenylpiperidin-1-yl)-2-(3,4-dichlorophenyl)butyl]-N-methylbenzamide]
Compound A alone 3 mg/kg i.p., increase not statistically significant
  percentage number of rewards obtained with respect to the control (in words): only slightly modifies
Compound A alone 3 mg/kg intraperitoneally
  % reinforced presses/total number of presses: 6.41 ± 1.73%
  minimum active dose in the DRL-72 s test: 10 mg/kg
